Measured values taken from US9067938B2, “Pyrazolopyridinone derivatives as LPA receptor antagonists” (Merck Patent GmbH, priority 2010, dated 2015).

Each compound was assayed against LPA2 receptor (Homo sapiens, UniProt Q9HBW0) (assay: LPA2R-calciumflux assay). Details: U2OS cells recombinant expressing LPA2R; LPA-induced intracellular calcium signal (FLIPR Tetra); 10 concentrations from 30 uM to 1 nM, 1% DMSO.
Type: cell-based
Excerpt: Description of the LPA2R Assay
Cell Cultivation/Propagation
LPA2R-calciumflux Assay Protocol
The assay detects intra cellular calcium which is generated by cells upon activation of the LPA2 receptor by its ligand LPA. This transient calcium mobilisation can be monitored using a commercial calcium detection kit (e.g. from Molecular Devices). The main component of such a kit is a dye, which becomes fluorescent when calcium is present—a transient fluorescence signal after laddition of a ligand to a test well are the result. Readers like the FLIPR (from Molecular Devices) can be used to monitor such transient “Ca-flux” signals.
The signals are calculated according to peak maximum minus base line. Compounds which are antogonists of LPA lead to a decreased mobilisation of intracellular calcium and thus to a lower signal. The assay is performed in microplates (384 wells per plate).
The assay itself is run according to the following procedure: • 50 uL seed cells (10000 cells/well in DMEM buffer) • Incubate 24 h at 37° C., 10% CO2 • aspirate medium • 50 uL add calcium dye 1×HBSS/HEPES buffer • incubate 1 h at 37° C. (“loading”) • equilibrate 10 min at RT • 5 uL add compounds in HEPES buffer • shake 10 sec. @ 1000 rpm • incubate 15 min at RT • 20 uL add LPA (in the FLIPR Tetra) in KREBS-Puffer/BSA & measurement
The cells are seeded in DMEM buffer (DMEM, 10% FCS, 10 mM HEPES, 1% Pen/Strep).
Dye loading is done in HBSS/HEPES buffer (100 mL 10×HBSS+20 mL 1M HEPES+880 mL water, pH 7.4)
The LPA is added in Krebs/BSA buffer (120 mM NaCl, 5 mM KCl, 0.62 mM MgSO4, 1.8 mM CaCl2, 10 mM HEPES, 6 mM D(+)-Glucose, 0.2% BSA, pH 7.4).
The compounds are pre-diluted in HEPES buffer (20 mM, pH 7.4), whereby the final DMSO content in the assay is kept at 1%. The compounds are pre-diluted in order to generate dose response series on the microplates. The dose response series consist of 10 concentrations for each compound from 30 uM final to 1 nM final. From all compound wells the resulting signals are referred to control wells (located on each plate besides the compound wells) in terms of % activity.
[formula] From these % activity values—along with the corresponding compound concentrations—IC50 values are fitted for each compound using standard fitting programs such as Graphpad Prism. Here the method “log(inhibitor) vs. response—Variable slope” is used. Reader Settings (FLIPR Tetra) • ExcWLength:470—495 • Em.Wlength: 515—575 • Gain: 50 • Exp. Time: 0,4 • Exc.Intensity: 80 • READ with TF • First read interval: 1,00 s • Number of first reads: 240 • Reads before dispense: 10 • Second read interval: 1,00 s • Number of second reads: 0 • Save Images No

Sequence of LPA2 receptor (Q9HBW0 whole entry): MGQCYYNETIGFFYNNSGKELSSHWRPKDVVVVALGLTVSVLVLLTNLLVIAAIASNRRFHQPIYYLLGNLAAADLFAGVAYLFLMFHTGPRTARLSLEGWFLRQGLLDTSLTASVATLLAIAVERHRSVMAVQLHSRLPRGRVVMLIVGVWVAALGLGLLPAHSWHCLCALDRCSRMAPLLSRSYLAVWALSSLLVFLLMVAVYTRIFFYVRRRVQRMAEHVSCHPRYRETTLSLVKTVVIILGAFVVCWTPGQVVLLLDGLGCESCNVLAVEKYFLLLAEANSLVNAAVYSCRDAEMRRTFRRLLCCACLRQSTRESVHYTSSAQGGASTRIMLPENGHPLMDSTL

Row | Structure (SMILES) | IC50 [µM]
1 | O=C1C[C@](O)(C(F)(F)F)c2c(-c3ccccc3)n[nH]c2N1 [Compound 11, (+)-4-Hydroxy-3-phenyl-4-trifluoromethyl-1,4,5,7-tetrahydro-pyrazolo[3,4-b]pyridin-6-one] | > 10
2 | COC1C(=O)Nc2[nH]nc(-c3ccccc3)c2C1(O)C(F)(F)F (stereo not shown) [Compound 27, 4-Hydroxy-5-methoxy-3-phenyl-4-trifluoromethyl-1,4,5,7-tetrahydro-pyrazolo[3,4-b]pyridin-6-one] | > 10
3 | O=C1Nc2[nH]nc(-c3ccccc3)c2C(O)(C(F)(F)F)C1CCO (stereo not shown) [Compound 26, 4-Hydroxy-5-(2-hydroxy-ethyl)-3-phenyl-4-trifluoromethyl-1,4,5,7-tetrahydro-pyrazolo[3,4-b]pyridin-6-one] | > 10
4 | Cn1nc(-c2ccc(Cl)cc2)c2c1NC(=O)CC2(O)C(F)(F)F (stereo not shown) [Compound 18, 3(4-Chloro-phenyl)-4-hydroxy-1-methyl-4-trifluoromethyl-1,4,5,7-tetrahydro-pyrazolo[3,4-b]pyridin-6-one] | > 10
5 | Cn1nc(-c2ccccc2)c2c1NC(=O)CC2(O)C(F)(F)F (stereo not shown) [Compound 4, 4-Hydroxy-1-methyl-3-phenyl-4-trifluoromethyl-1,4,5,7-tetrahydro-pyrazolo[3,4-b]pyridin-6-one] | > 10
6 | O=C1CC(O)(C(F)(F)F)c2c(-c3ccccc3)nn(-c3ccccc3)c2N1 (stereo not shown) [Compound 19, 4-Hydroxy-1,3-diphenyl-4-trifluoromethyl-1,4,5,7-tetrahydro-pyrazolo[3,4-b]pyridin-6-one] | > 10
7 | CCC1C(=O)Nc2[nH]nc(-c3ccccc3)c2C1(O)C(F)(F)F (stereo not shown) [Compound 25, 4-Hydroxy-5-ethyl-3-phenyl-4-trifluoromethyl-1,4,5,7-tetrahydro-pyrazolo[3,4-b]pyridin-6-one] | > 10
8 | O=C1CC(O)(C(F)(F)F)c2c(C3CC3)n[nH]c2N1 (stereo not shown) [Compound 16, 3-Cyclopropyl-4-hydroxy-4-trifluoromethyl-1,4,5,7-tetrahydro-pyrazolo[3,4-b]pyridin-6-one] | > 10
9 | O=C1C[C@](O)(C(F)(F)F)c2c(-c3cccc(F)c3)n[nH]c2N1 [Compound 21, (+)-3-(3-Fluoro-phenyl)-4-hydroxy-4-trifluoromethyl-1,4,5,7-tetrahydro-pyrazolo[3,4-b]pyridin-6-one] | > 10
10 | Cn1nc(-c2cccs2)c2c1NC(=O)CC2(O)C(F)(F)F (stereo not shown) [Compound 7, 4-Hydroxy-1-methyl-3-thiophen-2-yl-4-trifluoromethyl-1,4,5,7-tetrahydro-pyrazolo[3,4-b]pyridin-6-one] | > 10
11 | O=C1CC(O)(C(F)(F)F)c2c(-c3c[nH]c4ccccc34)n[nH]c2N1 (stereo not shown) [Compound 29, 4-Hydroxy-3-(1H-indol-3-yl)-4-trifluoromethyl-1,4,5,7-tetrahydro-pyrazolo[3,4-b]pyridin-6-one] | > 10
12 | O=C1CC(O)(C(F)(F)F)c2c(Cc3ccccc3)n[nH]c2N1 (stereo not shown) [Compound 28, 3-Benzyl-4-hydroxy-4-trifluoromethyl-1,4,5,7-tetrahydro-pyrazolo[3,4-b]pyridin-6-one] | > 10
13 | Cc1c(-c2n[nH]c3c2C(O)(C(F)(F)F)CC(=O)N3)cnn1C (stereo not shown) [Compound 33, 3-(1,5-Dimethyl-1H-pyrazol-4-yl)-4-hydroxy-4-trifluoromethyl-1,4,5,7-tetrahydro-pyrazolo[3,4-b]pyridin-6-one] | 1 to 10
14 | COc1cccc(-c2n[nH]c3c2C(O)(C(F)(F)F)CC(=O)N3)c1 (stereo not shown) [Compound 32, 4-Hydroxy-3-(3-methoxy-phenyl)-4-trifluoromethyl-1,4,5,7-tetrahydro-pyrazolo[3,4-b]pyridin-6-one] | 1 to 10
15 | CC1C(=O)Nc2[nH]nc(-c3ccccc3)c2C1(O)C(F)(F)F (stereo not shown) [Compound 24, 4-Hydroxy-5-methyl-3-phenyl-4-trifluoromethyl-1,4,5,7-tetrahydro-pyrazolo[3,4-b]pyridin-6-one] | 1 to 10
16 | O=C1CC(O)(C(F)(F)F)c2c(-c3ccc(F)cc3)n[nH]c2N1 (stereo not shown) [Compound 17, 3-(4-Fluoro-phenyl)-4-hydroxy-4-trifluoromethyl-1,4,5,7-tetrahydro-pyrazolo[3,4-b]pyridin-6-one] | < 1
17 | O=C1CC(O)(C(F)(F)F)c2c(-c3ccc(Cl)cc3)n[nH]c2N1 (stereo not shown) [Compound 5, 3-(4-Chloro-phenyl)-4-hydroxy-4-trifluoromethyl-1,4,5,7-tetrahydro-pyrazolo[3,4-b]pyridin-6-one] | 1 to 10
18 | O=C1CC(O)(C(F)(F)F)c2c(-c3cccc(Cl)c3)n[nH]c2N1 (stereo not shown) [Compound 14, 3-(3-Chloro-phenyl)-4-hydroxy-4-trifluoromethyl-1,4,5,7-tetrahydro-pyrazolo[3,4-b]pyridin-6-one] | < 1
19 | O=C1CC(O)(C(F)(F)F)c2c(-c3ccco3)n[nH]c2N1 (stereo not shown) [Compound 30, 3-Furan-2-yl-4-hydroxy-4-trifluoromethyl-1,4,5,7-tetrahydro-pyrazolo[3,4-b]pyridin-6-one] | > 10
20 | O=C1CC(O)(C(F)(F)F)c2c(-c3ccc(Br)cc3)n[nH]c2N1 (stereo not shown) [Compound 12, 3-(4-Bromo-phenyl)-4-hydroxy-4-trifluoromethyl-1,4,5,7-tetrahydro-pyrazolo[3,4-b]pyridin-6-one] | > 10

Continued, values first:

Row | IC50 [µM] | Structure (SMILES)
21 | < 1 | O=C1C[C@@](O)(C(F)(F)F)c2c(-c3cccc(F)c3)n[nH]c2N1 [Compound 20, (−)-3-(3-Fluoro-phenyl)-4-hydroxy-4-trifluoromethyl-1,4,5,7-tetrahydro-pyrazolo[3,4-b]pyridin-6-one]
22 | < 1 | O=C1CC(O)(C(F)(F)F)c2c(-c3cccc(F)c3)n[nH]c2N1 (stereo not shown) [Compound 1, 3-(3-Fluoro-phenyl)-4-hydroxy-4-trifluoromethyl-1,4,5,7-tetrahydro-pyrazolo[3,4-b]pyridin-6-one]
23 | < 1 | O=C1CC(O)(C(F)(F)F)c2c(-c3ccccc3)n[nH]c2N1 (stereo not shown) [Compound 2, 4-Hydroxy-3-phenyl-4-trifluoromethyl-1,4,5,7-tetrahydro-pyrazolo[3,4-b]pyridin-6-one]
24 | < 1 | O=C1CC(O)(C(F)(F)F)c2c(-c3cccs3)n[nH]c2N1 (stereo not shown) [Compound 8, 4-Hydroxy-3-thiophen-2-yl-4-trifluoromethyl-1,4,5,7-tetrahydro-pyrazolo[3,4-b]pyridin-6-one]
25 | < 1 | COc1cc(OC)cc(-c2n[nH]c3c2C(O)(C(F)(F)F)CC(=O)N3)c1 (stereo not shown) [Compound 9, 3-(3,5-Dimethoxy-phenyl)-4-hydroxy-4-trifluoromethyl-1,4,5,7-tetrahydro-pyrazolo[3,4-b]pyridin-6-one]
26 | < 1 | O=C1CC(O)(C(F)(F)F)c2c(-c3cccc(Br)c3)n[nH]c2N1 (stereo not shown) [Compound 13, 3-(3-Bromo-phenyl)-4-hydroxy-4-trifluoromethyl-1,4,5,7-tetrahydro-pyrazolo[3,4-b]pyridin-6-one]
27 | < 1 | Cc1ccc(-c2n[nH]c3c2C(O)(C(F)(F)F)CC(=O)N3)cc1 (stereo not shown) [Compound 6, 4-Hydroxy-3-p-tolyl-4-trifluoromethyl-1,4,5,7-tetrahydro-pyrazolo[3,4-b]pyridin-6-one]
28 | < 1 | COc1ccc(-c2n[nH]c3c2C(O)(C(F)(F)F)CC(=O)N3)cc1OC (stereo not shown) [Compound 31, 3-(3,4-Dimethoxy-phenyl)-4-hydroxy-4-trifluoromethyl-1,4,5,7-tetrahydro-pyrazolo[3,4-b]pyridin-6-one]
29 | < 1 | COc1ccc(-c2n[nH]c3c2C(O)(C(F)(F)F)CC(=O)N3)cc1 (stereo not shown) [Compound 3, 4-Hydroxy-3-(4-methoxy-phenyl)-4-trifluoromethyl-1,4,5,7-tetrahydro-pyrazolo[3,4-b]pyridin-6-one]
30 | < 1 | O=C1CC(O)(C(F)(F)F)c2c(-c3cccc(C(F)(F)F)c3)n[nH]c2N1 (stereo not shown) [Compound 15, 4-Hydroxy-4-trifluoromethyl-3-(3-trifluoromethyl-phenyl)-1,4,5,7-tetrahydro-pyrazolo[3,4-b]pyridin-6-one]
31 | < 1 | O=C1C[C@@](O)(C(F)(F)F)c2c(-c3ccccc3)n[nH]c2N1 [Compound 10, (−)-4-Hydroxy-3-phenyl-4-trifluoromethyl-1,4,5,7-tetrahydro-pyrazolo[3,4-b]pyridin-6-one]
